# Laboratory results reported in patent publication US8222430B2, “1-heterodiene derivative and harmful organism control agent” (priority 2008, dated 2012).
# Where two headings read alike, the source gives them in different places.
# How the values were obtained:
# Bemisia tabaci = assay: Confirmation of efficacy against Bemisia tabaci (sprayed detached tomato leaves, insect mortality); type: in vivo; conditions: 72 h, B type adults, after three days, 25° C., humidity 65%, read-out: mortality rate
# Text: Detached tomato leaves were sprayed with the resulting chemical solution and air-dried. Then, the leaves were set on flasks in a manner that the surface of the leaves face upward. […] The test was repeated twice.
# Pseudaletia separate = assay: Confirmation of efficacy against Pseudaletia separate (maize leaf soak, insect mortality); type: in vivo; conditions: 120 h, maize leaves soaked 30 seconds, second-instar larvae, after five days, 25° C., humidity 65%, read-out: mortality rate
# Text: Maize leaves were soaked in the resulting chemical solution for 30 seconds and air-dried. Then the leaves were put on Petri dishes lined with a filter paper, followed by inoculating 5 second-instar larvae. […] Mortality was investigated after five days, and the insect mortality rate was obtained. The test was repeated twice.
# Aphis gossypii = assay: Confirmation of efficacy against Aphis gossypii (cucumber seedlings, insect mortality); type: in vivo; conditions: 120 h, read-out: mortality rate
# Text: Mortality was investigated after five days, and the insect mortality rate was obtained.
# The test was repeated twice.
# [1] = test system: Tetranychus urticae with organophosphate resistance; assay: Confirmation of efficacy against Tetranychus urticae (bean seedlings, mortality); conditions: for mortality rate: 125 ppm, sprayed bean seedlings, female adults with organophosphate resistance, after three days, 25° C., humidity 65%
# [2] = 125 ppm, cucumber seedlings parasitized with offspring, after five days, 25° C., humidity 65%
SMILES,mortality at 125 ppm (Bemisia tabaci),mortality at 125 ppm (Pseudaletia separate),mortality rate [1],also measured
"C(/Sc1ccccc1)=C1/CCS/C1=N\c1ccccc1 [Compound 1a-1, (Z)—N-((E)-3-(phenylthiomethylene)dihydrothiophen-2(3H)-ylidene)aniline]",100%,100%,–,–
"C(/Sc1ccccc1)=C1/CCCS/C1=N\c1ccccc1 [Compound 2a-1, (Z)—N-((E)-3-(phenylthiomethylene)tetrahydro-2H-thiopyran-2-ylidene) aniline]",100%,100%,–,mortality at 125 ppm (Aphis gossypii; [2]): 100%
Cc1ccc(/N=C2\SCCC\C2=C/Sc2ccc(F)cc2)cc1 [Compound 2a-78],–,–,100%,–
Cc1ccc(/N=C2\OC(C)CC\C2=C/Sc2ccccc2)cc1 (centres unmarked) [Compound 2a-83],–,–,100%,–
CCCC1CCC(=C\Sc2ccccc2)/C(=N/c2ccc(C)cc2)O1 (centres unmarked) [Compound 2a-84],–,–,100%,–
Cc1ccc(/N=C2\OC(C)(C)CC\C2=C/Sc2ccccc2)cc1 [Compound 2a-85],–,–,100%,–
Cc1ccc(/N=C2\OC(c3ccccc3)CC\C2=C/Sc2ccccc2)cc1 (centres unmarked) [Compound 2a-86],–,–,100%,–
Cc1ccc(/N=C2\OC3CCCCC3C\C2=C/Sc2ccccc2)cc1 (centres unmarked) [Compound 5a-1],100%,100%,–,mortality at 125 ppm (Aphis gossypii; [2]): 100%
Cc1ccc(/N=C2\OCc3ccccc3\C2=C/Sc2ccccc2)cc1 [Compound 5a-2],–,100%,–,–
Cc1ccc(/N=C2\OC3CCCCC3\C2=C/Sc2ccccc2)cc1 (centres unmarked) [Compound 5a-3],100%,100%,–,–
"Clc1ccc(/N=C2\SC3C=CCCC3C\C2=C/Sc2ccccc2)cc1 (centres unmarked) [Compound 5a-5, (4-chloro-phenyl)-{3-[1-phenylsulfanyl-(E)-methylidene]-3,4,4a,5,6,8a-hexahydro-thiochromene-(2Z)-ylidene}-amine]",100%,100%,–,"mortality at 125 ppm ([1]; Tetranychus urticae, 72 h, read-out: mortality rate): 100%; mortality at 125 ppm (Aphis gossypii): 100%"
